Data: US9763445B2, “Safened herbicidal compositions comprising a pyridine carboxylic acid herbicide” (Dow AgroSciences, LLC, priority 2014, dated 2017)

Assays:
[1] = tested on: Russian thistle (SASKR); assay: Postemergence greenhouse trial, % visual injury on Russian thistle; type: in vivo, Salsola kali; settings: for % visual injury, Ob: alone
[2] = tested on: lambsquarters (CHEAL); assay: Postemergence greenhouse trial, % visual injury on lambsquarters; type: in vivo, Chenopodium album; settings: for % visual injury, Ob / % visual injury, observed (Ob): CHEAL
Outline: (§1)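 Plants at second or third true leaf stage, greenhouse-grown (14 h photoperiod, ~23/22° C.), sprayed postemergence with compounds alone or with safener cloquintocet-mexyl in 1.5% v/v Agri-dex crop oil at 187 L/ha. Visual injury scored 0–100% versus solvent-blank controls after 20-22 d; expected mixture effects by Colby's equation.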

[3] = tested on: thistle (CIRAR); assay: Postemergence greenhouse trial, % visual injury on thistle; type: in vivo, Cirsium arvense; settings: for % visual injury, Ob: CIRAR
Outline: as §1

[4] = tested on: kochia (KCHSC); assay: Postemergence greenhouse trial, % visual injury on kochia; type: in vivo, Kochia scoparia; settings: for % visual injury, Ob / % visual injury, observed (Ob): KCHSC
Outline: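 Herbicide rates g ae/ha, safener (cloquintocet-mexyl) rates g ai/ha; spray carrier 1.5% v/v crop oil concentrate, 187 L/ha, 2nd–3rd leaf stage. Rating: visual % injury at 20-22 d.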

[5] = compound 8 0 + CQC-m 4.375 g/ha

CCCCCC(C)OC(=O)COc1ccc(Cl)c2cccnc12 (stereo not drawn) [CQC-m, cloquintocet-mexyl, reference compound]
0%: % visual injury, observed (Ob) ([1]; SASKR, compound 8 0 + CQC-m 70 g/ha) | % visual injury, Ob ([1]; 4.375 g/ha) | % visual injury, Ob ([1]; 8.75 g/ha) | % visual injury, Ob ([1]; 17.5 g/ha) | % visual injury, Ob ([1]; 35 g/ha) | % visual injury, Ob ([1]; 70 g/ha) | % visual injury, Ob ([2]; 4.375 g/ha, applied alone) | % visual injury, Ob ([2]; 8.75 g/ha, applied alone) | % visual injury, Ob ([2]; 17.5 g/ha, applied alone) | % visual injury, Ob ([2]; 35 g/ha, applied alone) | % visual injury, Ob ([2]; 70 g/ha, applied alone) | % visual injury, Ob ([2]; compound 0, CQC-m 4.375 g/ha) | % visual injury, Ob ([2]; compound 0, CQC-m 8.75 g/ha) | % visual injury, Ob ([2]; compound 0, CQC-m 17.5 g/ha) | % visual injury, Ob ([2]; compound 0, CQC-m 35 g/ha) | % visual injury, Ob ([2]; compound 0, CQC-m 70 g/ha) | % visual injury, observed (Ob) [2, 5] | % visual injury, observed (Ob) ([2]; compound 8 0 + CQC-m 8.75 g/ha) | % visual injury, observed (Ob) ([2]; compound 8 0 + CQC-m 17.5 g/ha) | % visual injury, observed (Ob) ([2]; compound 8 0 + CQC-m 35 g/ha) | % visual injury, observed (Ob) ([2]; compound 8 0 + CQC-m 70 g/ha) | pest or weed control at 4.375 g/ha ([2]; Chenopodium album, post-emergence, alone, 4.375 g/ha, read-out: % visual injury, Ob) | pest or weed control at 8.75 g/ha ([2]; Chenopodium album, post-emergence, alone, 8.75 g/ha, read-out: % visual injury, Ob) | pest or weed control at 17.5 g/ha ([2]; Chenopodium album, post-emergence, alone, 17.5 g/ha, read-out: % visual injury, Ob) | pest or weed control at 20 g/ha ([2]; Chenopodium album, post-emergence, alone, 20 g/ha, read-out: % visual injury, Ob) | pest or weed control at 35 g/ha ([2]; Chenopodium album, post-emergence, alone, 35 g/ha, read-out: % visual injury, Ob) | pest or weed control at 40 g/ha ([2]; Chenopodium album, post-emergence, alone, 40 g/ha, read-out: % visual injury, Ob) | pest or weed control at 70 g/ha ([2]; Chenopodium album, post-emergence, alone, 70 g/ha, read-out: % visual injury, Ob) | pest or weed control at 80 g/ha ([2]; Chenopodium album, post-emergence, alone, 80 g/ha, read-out: % visual injury, Ob) | % visual injury, Ob ([3]; 4.375 g/ha, applied alone) | % visual injury, Ob ([3]; 8.75 g/ha, applied alone) | % visual injury, Ob ([3]; 17.5 g/ha, applied alone) | % visual injury, Ob ([3]; 35 g/ha, applied alone) | % visual injury, Ob ([3]; 70 g/ha, applied alone) | % visual injury, Ob ([3]; compound 0, CQC-m 4.375 g/ha) | % visual injury, Ob ([3]; compound 0, CQC-m 8.75 g/ha) | % visual injury, Ob ([3]; compound 0, CQC-m 17.5 g/ha) | % visual injury, Ob ([3]; compound 0, CQC-m 35 g/ha) | % visual injury, Ob ([3]; compound 0, CQC-m 70 g/ha) | pest or weed control at 4.375 g/ha ([3]; Cirsium arvense, post-emergence, alone, 4.375 g/ha, read-out: % visual injury, Ob) | pest or weed control at 8.75 g/ha ([3]; Cirsium arvense, post-emergence, alone, 8.75 g/ha, read-out: % visual injury, Ob) | pest or weed control at 17.5 g/ha ([3]; Cirsium arvense, post-emergence, alone, 17.5 g/ha, read-out: % visual injury, Ob) | pest or weed control at 35 g/ha ([3]; Cirsium arvense, post-emergence, alone, 35 g/ha, read-out: % visual injury, Ob) | pest or weed control at 70 g/ha ([3]; Cirsium arvense, post-emergence, alone, 70 g/ha, read-out: % visual injury, Ob) | pest or weed control at 4.375 g/ha ([4]; Bassia scoparia, post-emergence, alone, 4.375 g/ha, read-out: % visual injury, Ob) | pest or weed control at 8.75 g/ha ([4]; Bassia scoparia, post-emergence, alone, 8.75 g/ha, read-out: % visual injury, Ob) | pest or weed control at 17.5 g/ha ([4]; Bassia scoparia, post-emergence, alone, 17.5 g/ha, read-out: % visual injury, Ob) | pest or weed control at 20 g/ha ([4]; Bassia scoparia, post-emergence, alone, 20 g/ha, read-out: % visual injury, Ob) | pest or weed control at 35 g/ha ([4]; Bassia scoparia, post-emergence, alone, 35 g/ha, read-out: % visual injury, Ob) | pest or weed control at 40 g/ha ([4]; Bassia scoparia, post-emergence, alone, 40 g/ha, read-out: % visual injury, Ob) | pest or weed control at 70 g/ha ([4]; Bassia scoparia, post-emergence, alone, 70 g/ha, read-out: % visual injury, Ob) | pest or weed control at 80 g/ha ([4]; Bassia scoparia, post-emergence, alone, 80 g/ha, read-out: % visual injury, Ob) | % visual injury, Ob ([4]; 4.375 g/ha, applied alone) | % visual injury, Ob ([4]; 8.75 g/ha, applied alone) | % visual injury, Ob ([4]; 17.5 g/ha, applied alone) | % visual injury, Ob ([4]; 35 g/ha, applied alone) | % visual injury, Ob ([4]; 70 g/ha, applied alone) | % visual injury, Ob ([4]; compound 0, CQC-m 4.375 g/ha) | % visual injury, Ob ([4]; compound 0, CQC-m 8.75 g/ha) | % visual injury, Ob ([4]; compound 0, CQC-m 17.5 g/ha) | % visual injury, Ob ([4]; compound 0, CQC-m 35 g/ha) | % visual injury, Ob ([4]; compound 0, CQC-m 70 g/ha) | % visual injury, Ob ([4]; compound 0 g/ha, CQC-m 4.375 g/ha) | % visual injury, Ob ([4]; compound 0 g/ha, CQC-m 8.75 g/ha) | % visual injury, Ob ([4]; compound 0 g/ha, CQC-m 17.5 g/ha) | % visual injury, Ob ([4]; compound 0 g/ha, CQC-m 35 g/ha) | % visual injury, Ob ([4]; compound 0 g/ha, CQC-m 70 g/ha) | % visual injury, observed (Ob) [4, 5] | % visual injury, observed (Ob) ([4]; compound 8 0 + CQC-m 8.75 g/ha) | % visual injury, observed (Ob) ([4]; compound 8 0 + CQC-m 17.5 g/ha) | % visual injury, observed (Ob) ([4]; compound 8 0 + CQC-m 35 g/ha) | % visual injury, observed (Ob) ([4]; compound 8 0 + CQC-m 70 g/ha)
